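Grown in 96-well plates, cells were treated for 48 hours with each compound at five concentrations. Insufficient inhibition: endpoint recorded as highest concentration tested. Here, GI50 denotes the concentration required for 50% inhibition of growth.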 Calls of active or inactive are those of the source. No stated cut-off is given here; in the data, active = GI50 up to about 1.1 µM and inactive = higher.
Columns and labels:
Assay in all cases: NCI anticancer screen, dose series, 48 h
KM12 = tested on: KM12
DMS-114 = tested on: DMS-114
COLO 205 = tested on: COLO 205
MDA-MB-435 = tested on: MDA-MB-435
K562 = tested on: K562
M19-MEL = tested on: M19-MEL
MDA-MB-231 = tested on: MDA-MB-231
OVCAR-5 = tested on: OVCAR-5
NCI-H460 = tested on: NCI-H460
Hs-578T = tested on: Hs-578T
M14 = tested on: M14
OVCAR-3 = tested on: OVCAR-3
IGROV-1 = tested on: IGROV-1
HL-60 = tested on: HL-60
NCI-H226 = tested on: NCI-H226
SK-MEL-5 = tested on: SK-MEL-5
HCT-116 = tested on: HCT-116
SR = tested on: SR
T47D = tested on: T47D
HT-29 = tested on: HT-29
OVCAR-8 = tested on: OVCAR-8
Malme-3M = tested on: Malme-3M
DMS-273 = tested on: DMS-273
TK-10 = tested on: TK-10
NCI-H23 = tested on: NCI-H23
NCI-H522 = tested on: NCI-H522
HCT-15 = tested on: HCT-15
MOLT-4 = tested on: MOLT-4
LOX IMVI = tested on: LOX IMVI
MDA-N = tested on: MDA-N
DU-145 = tested on: DU-145
LXFL 529 = tested on: LXFL 529
MCF7 = tested on: MCF7
SK-MEL-28 = tested on: SK-MEL-28
SNB-19 = tested on: SNB-19
EKVX = tested on: EKVX
CAKI-1 = tested on: CAKI-1
ACHN = tested on: ACHN
UO-31 = tested on: UO-31
HCC 2998 = tested on: HCC 2998
SK-MEL-2 = tested on: SK-MEL-2
BT-549 = tested on: BT-549
RXF 393 = tested on: RXF 393
UACC-62 = tested on: UACC-62
NCI/ADR-RES = tested on: NCI/ADR-RES
SNB-78 = tested on: SNB-78
DLD-1 = tested on: DLD-1
U-251 = tested on: U-251
SF-268 = tested on: SF-268
XF498 = tested on: XF498
OVCAR-4 = tested on: OVCAR-4
SNB-75 = tested on: SNB-75
HOP-18 = tested on: HOP-18
CCRF-CEM = tested on: CCRF-CEM
RPMI-8226 = tested on: RPMI-8226
A549 = tested on: A549
KM-20L2 = tested on: KM-20L2
SN12C = tested on: SN12C
SK-OV-3 = tested on: SK-OV-3
786-0 = tested on: 786-0
SF-539 = tested on: SF-539
SF-295 = tested on: SF-295
PC-3 = tested on: PC-3
HOP-62 = tested on: HOP-62
SW-620 = tested on: SW-620
HOP-92 = tested on: HOP-92
UACC-257 = tested on: UACC-257
A498 = tested on: A498

Q: Which results are given for Nc1ccc(Cn2ccc3c4c(N)nc(N)nc4ccc32)cc1?
A: GI50 (KM12): 32.1 nM (active); GI50 (DMS-114): < 10 nM (active); GI50 (COLO 205): 628 nM (active); GI50 (MDA-MB-435): < 10 nM (active); GI50 (K562): < 10 nM (active); GI50 (M19-MEL): 83.4 nM (active); GI50 (MDA-MB-231): 1060 nM (active); GI50 (OVCAR-5): 22.4 nM (active); GI50 (NCI-H460): < 10 nM (active); GI50 (Hs-578T): 2280 nM (inactive); GI50 (M14): < 11.4 nM (active); GI50 (OVCAR-3): 431 nM (active); GI50 (IGROV-1): < 10 nM (active); GI50 (HL-60): < 10 nM (active); GI50 (NCI-H226): 4270 nM (inactive); GI50 (SK-MEL-5): < 10 nM (active); GI50 (HCT-116): < 10 nM (active); GI50 (SR): 39.3 nM (active); GI50 (T47D): 818 nM (active); GI50 (HT-29): < 10 nM (active); GI50 (OVCAR-8): < 12.7 nM (active); GI50 (Malme-3M): 137 nM (active); GI50 (DMS-273): < 10 nM (active); GI50 (TK-10): 1580 nM (inactive); GI50 (NCI-H23): < 10 nM (active); GI50 (NCI-H522): 84.7 nM (active); GI50 (HCT-15): < 10 nM; GI50 (MOLT-4): < 12.2 nM (active); GI50 (LOX IMVI): < 10 nM (active); GI50 (MDA-N): < 10 nM (active); GI50 (DU-145): 12.3 nM (active); GI50 (LXFL 529): 11.9 nM (active); GI50 (MCF7): 35.1 nM (active); GI50 (SK-MEL-28): 128 nM (active); GI50 (SNB-19): 300 nM (active); GI50 (EKVX): 6470 nM (inactive); GI50 (CAKI-1): 11.9 nM (active); GI50 (ACHN): < 10 nM (active); GI50 (UO-31): 406 nM (active); GI50 (HCC 2998): < 26.8 nM (active); GI50 (SK-MEL-2): 1170 nM (inactive); GI50 (BT-549): 219 nM (active); GI50 (RXF 393): 118 nM (active); GI50 (UACC-62): < 10 nM (active); GI50 (NCI/ADR-RES): 242 nM (active); GI50 (SNB-78): 7350 nM (inactive); GI50 (DLD-1): < 10 nM (active); GI50 (U-251): < 10 nM (active); GI50 (SF-268): < 15.6 nM (active); GI50 (XF498): 1500 nM (inactive); GI50 (OVCAR-4): 1540 nM (inactive); GI50 (SNB-75): 804 nM (active); GI50 (HOP-18): 10200 nM (inactive); GI50 (CCRF-CEM): < 10 nM (active); GI50 (RPMI-8226): 165 nM (active); GI50 (A549): < 10 nM (active); GI50 (KM-20L2): < 10 nM (active); GI50 (SN12C): < 20.7 nM (active); GI50 (SK-OV-3): 12300 nM (inactive); GI50 (786-0): < 25.2 nM (active); GI50 (SF-539): < 18.4 nM (active); GI50 (SF-295): < 10 nM (active); GI50 (PC-3): 12.7 nM (active); GI50 (HOP-62): 14.1 nM (active); GI50 (SW-620): < 10 nM (active); GI50 (HOP-92): 710 nM (active)

Q: Which results are given for COc1ccc2c(c1)C=C([N+](=O)[O-])C(C1OC(C)(C)OC1C1COC(C)(C)O1)O2 (stereo unspecified)?
A: GI50 (UACC-257): 2770 nM (inactive); GI50 (KM12): 2000 nM (inactive); GI50 (DMS-114): 2880 nM (inactive); GI50 (COLO 205): 10800 nM (inactive); GI50 (MDA-MB-435): 3060 nM (inactive); GI50 (K562): 1440 nM (inactive); GI50 (M19-MEL): 1630 nM (inactive); GI50 (MDA-MB-231): 2360 nM (inactive); GI50 (OVCAR-5): 8040 nM (inactive); GI50 (NCI-H460): 3640 nM (inactive); GI50 (Hs-578T): 4180 nM (inactive); GI50 (M14): 2070 nM (inactive); GI50 (OVCAR-3): 8690 nM (inactive); GI50 (IGROV-1): 14600 nM (inactive); GI50 (HL-60): 1860 nM (inactive); GI50 (NCI-H226): 14600 nM (inactive); GI50 (SK-MEL-5): 2820 nM (inactive); GI50 (HCT-116): 1790 nM (inactive); GI50 (SR): 1550 nM (inactive); GI50 (T47D): 12000 nM (inactive); GI50 (HT-29): 1970 nM (inactive); GI50 (OVCAR-8): 2850 nM (inactive); GI50 (Malme-3M): 2310 nM (inactive); GI50 (DMS-273): 2900 nM (inactive); GI50 (TK-10): 18400 nM (inactive); GI50 (NCI-H23): 11600 nM (inactive); GI50 (NCI-H522): 731 nM (active); GI50 (HCT-15): 1950 nM; GI50 (MOLT-4): 1790 nM (inactive); GI50 (LOX IMVI): 1490 nM (inactive); GI50 (DU-145): 16000 nM (inactive); GI50 (LXFL 529): 3810 nM (inactive); GI50 (MCF7): 2540 nM (inactive); GI50 (SK-MEL-28): 1740 nM (inactive); GI50 (SNB-19): 11900 nM (inactive); GI50 (EKVX): 13800 nM (inactive); GI50 (CAKI-1): 4510 nM (inactive); GI50 (ACHN): 2400 nM (inactive); GI50 (UO-31): 13100 nM (inactive); GI50 (HCC 2998): 13300 nM (inactive); GI50 (SK-MEL-2): 1870 nM (inactive); GI50 (BT-549): 2740 nM (inactive); GI50 (RXF 393): 1980 nM (inactive); GI50 (UACC-62): 1820 nM (inactive); GI50 (SNB-78): 2790 nM (inactive); GI50 (DLD-1): 1510 nM (inactive); GI50 (U-251): 3010 nM (inactive); GI50 (A498): 18000 nM (inactive); GI50 (SF-268): 3500 nM (inactive); GI50 (XF498): 11000 nM (inactive); GI50 (OVCAR-4): 8170 nM (inactive); GI50 (SNB-75): 14500 nM (inactive); GI50 (HOP-18): 24700 nM (inactive); GI50 (CCRF-CEM): 386 nM (active); GI50 (RPMI-8226): 1670 nM (inactive); GI50 (A549): 18000 nM (inactive); GI50 (KM-20L2): 5080 nM (inactive); GI50 (SN12C): 4910 nM (inactive); GI50 (SK-OV-3): 11000 nM (inactive); GI50 (786-0): 12800 nM (inactive); GI50 (SF-539): 5660 nM (inactive); GI50 (SF-295): 7890 nM (inactive); GI50 (HOP-62): 20000 nM (inactive); GI50 (SW-620): 2260 nM (inactive); GI50 (HOP-92): 16100 nM (inactive)
